One block for each compound: values may come before it.
Experiments:
[1] = design: method as in PMID 24419562; conditions: healthy volunteers; cited from earlier work
[2] = rats; single oral dose of green tea extract 400 mg/kg 30 min before simvastatin; cited from earlier work
[3] = Simvastatin-herb pharmacokinetic interaction study, plasma simvastatin lactone and acid by LC-MS/MS; conditions: male, human, po, 20 mg
human OATP1B1 = system: human OATP1B1; design: method as in PMID 32006472; conditions: low concentration; CHO cells; cited from earlier work
[4] = same extract given daily for 2 weeks and simultaneously with the dose of rosuvastatin; cited from earlier work
[5] = male, human, in vivo, 20 mg
clinical = conditions: male, human, in vivo, 20 mg

SMILES: CC(C)(C)NCC(O)COc1cccc2c1CC(O)C(O)C2 (stereo not shown) [nadolol]
Reduction of systemic exposure with green tea taken as a drink [1]: 85%

half-life ([3]; T1/2, 18 subjects, simvastatin 20 mg with green tea extract, geometric mean (% CV)): 4.96 h
half-life ([3]; T1/2, 18 subjects, simvastatin 20 mg with soy isoflavones, geometric mean (% CV)): 4.51 h
half-life ([3]; T1/2, SLCO1B1 521CC (n = 4), after green tea): 3.98 h
half-life ([3]; T1/2, SLCO1B1 521CC (n = 4), after soy isoflavones): 3.9 h
half-life ([3]; T1/2, SLCO1B1 521CC (n = 4), baseline): 4.83 h
half-life ([3]; T1/2, SLCO1B1 521TC (n = 8), after green tea): 4.72 h
half-life ([3]; T1/2, SLCO1B1 521TC (n = 8), after soy isoflavones): 4.71 h
half-life ([3]; T1/2, SLCO1B1 521TC (n = 8), baseline): 4.54 h
half-life ([3]; T1/2, SLCO1B1 521TT (n = 6), after green tea): 6.15 h
half-life ([3]; T1/2, SLCO1B1 521TT (n = 6), after soy isoflavones): 4.71 h
SMILES: CCC(C)(C)C(=O)O[C@H]1C[C@@H](C)C=C2C=C[C@H](C)[C@H](CC[C@@H]3C[C@@H](O)CC(=O)O3)[C@H]21 [Simvastatin lactone, simvastatin]
Effect of green tea extract on t1/2 [2]: no effect

SMILES: O=C(O[C@@H]1Cc2c(O)cc(O)cc2O[C@@H]1c1ccc(O)c(O)c1)c1cc(O)c(O)c(O)c1 [epicatechin gallate (ECG), epicatechin gallate]
Stimulating effect on OATP1B1-mediated DCF uptake (human OATP1B1): about 160%

SMILES: CC(C)c1nc(N(C)S(C)(=O)=O)nc(-c2ccc(F)cc2)c1/C=C/[C@@H](O)C[C@@H](O)CC(=O)O [rosuvastatin]
Reduction of systemic exposure with green tea extract [4]: about 20%

AUC0–24h [5]: 12.1 (54.6) h⋅μg/L
AUC(0-t) (clinical; AUC0–24h): 0.0161 µg·h/mL
half-life (clinical; po, T1/2): 3.94 h
Tmax (clinical; po, Tmax): 3.5 h
SMILES: CCC(C)(C)C(=O)O[C@H]1C[C@@H](C)C=C2C=C[C@H](C)[C@H](CC[C@@H](O)C[C@@H](O)CC(=O)O)[C@H]21 [Simvastatin acid, simvastatin acid]
Increase of AUC0–6h with green tea extract [2]: 2.0 fold

Reference: paper PMC9171976 (Frontiers in Nutrition, 2022)
